System: Genes belonging to other category
Assay: DNA chip mRNA expression in yeast, genes belonging to other category (Table 9)
Format: cell-based, Saccharomyces cerevisiae S288C
Summary of the method: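 Expression change after 2 h toxicant exposure (growth-inhibiting, sub-lethal) of log-phase S. cerevisiae S288C at 25° C. Oligo-dT-purified mRNA was labeled with Cy3-dUTP or Cy5-dUTP and hybridized >12 h at 65° C. to a genome-wide chip; ratio of scanned fluorescence to control.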

Compound: C[S+](C)[O-] [(15), dimethylsulfoxide]
- The level of expressed mRNA in the presence of chemical substance/The level of expressed mRNA in the absence of chemical substance (yeast gene YKL190W): 1.4
- The level of expressed mRNA in the presence of chemical substance/The level of expressed mRNA in the absence of chemical substance (yeast gene YKR014C): 1.4
- The level of expressed mRNA in the presence of chemical substance/The level of expressed mRNA in the absence of chemical substance (yeast gene YLR090W): 0.8
- The level of expressed mRNA in the presence of chemical substance/The level of expressed mRNA in the absence of chemical substance (yeast gene YLR093C): 0.9
- The level of expressed mRNA in the presence of chemical substance/The level of expressed mRNA in the absence of chemical substance (yeast gene YLR118C): 0.8
- The level of expressed mRNA in the presence of chemical substance/The level of expressed mRNA in the absence of chemical substance (yeast gene YLR120C): 2.7
- The level of expressed mRNA in the presence of chemical substance/The level of expressed mRNA in the absence of chemical substance (yeast gene YLR178C): 2.3
- The level of expressed mRNA in the presence of chemical substance/The level of expressed mRNA in the absence of chemical substance (yeast gene YLR250W): 2.6
- The level of expressed mRNA in the presence of chemical substance/The level of expressed mRNA in the absence of chemical substance (yeast gene YLR251W): 0.8
- The level of expressed mRNA in the presence of chemical substance/The level of expressed mRNA in the absence of chemical substance (yeast gene YLR327C): 0.8
- The level of expressed mRNA in the presence of chemical substance/The level of expressed mRNA in the absence of chemical substance (yeast gene YLR356W): 2.8
- The level of expressed mRNA in the presence of chemical substance/The level of expressed mRNA in the absence of chemical substance (yeast gene YLR362W): 1.3
- The level of expressed mRNA in the presence of chemical substance/The level of expressed mRNA in the absence of chemical substance (yeast gene YLR391W): 3.9
- The level of expressed mRNA in the presence of chemical substance/The level of expressed mRNA in the absence of chemical substance (yeast gene YMR004W): 1.3
- The level of expressed mRNA in the presence of chemical substance/The level of expressed mRNA in the absence of chemical substance (yeast gene YMR051C): 1.7
- The level of expressed mRNA in the presence of chemical substance/The level of expressed mRNA in the absence of chemical substance (yeast gene YMR139W): 0.9
- The level of expressed mRNA in the presence of chemical substance/The level of expressed mRNA in the absence of chemical substance (yeast gene YMR219W): 1.7
- The level of expressed mRNA in the presence of chemical substance/The level of expressed mRNA in the absence of chemical substance (yeast gene YMR226C): 2.0
- The level of expressed mRNA in the presence of chemical substance/The level of expressed mRNA in the absence of chemical substance (yeast gene YMR275C): 1.7
- The level of expressed mRNA in the presence of chemical substance/The level of expressed mRNA in the absence of chemical substance (yeast gene YMR276W): 3.3
- The level of expressed mRNA in the presence of chemical substance/The level of expressed mRNA in the absence of chemical substance (yeast gene YNL006W): 0.7
- The level of expressed mRNA in the presence of chemical substance/The level of expressed mRNA in the absence of chemical substance (yeast gene YNL007C): 0.8
- The level of expressed mRNA in the presence of chemical substance/The level of expressed mRNA in the absence of chemical substance (yeast gene YNL015W): 1.4
- The level of expressed mRNA in the presence of chemical substance/The level of expressed mRNA in the absence of chemical substance (yeast gene YNL214W): 0.9
- The level of expressed mRNA in the presence of chemical substance/The level of expressed mRNA in the absence of chemical substance (yeast gene YNL333W): 1.0
- The level of expressed mRNA in the presence of chemical substance/The level of expressed mRNA in the absence of chemical substance (yeast gene YNR010W): 0.8
- The level of expressed mRNA in the presence of chemical substance/The level of expressed mRNA in the absence of chemical substance (yeast gene YNR069C): 1.0
- The level of expressed mRNA in the presence of chemical substance/The level of expressed mRNA in the absence of chemical substance (yeast gene YOL013C): 2.7
- The level of expressed mRNA in the presence of chemical substance/The level of expressed mRNA in the absence of chemical substance (yeast gene YOL164W): 1.0
- The level of expressed mRNA in the presence of chemical substance/The level of expressed mRNA in the absence of chemical substance (yeast gene YOR117W): 1.4
- The level of expressed mRNA in the presence of chemical substance/The level of expressed mRNA in the absence of chemical substance (yeast gene YOR124C): 1.3
- The level of expressed mRNA in the presence of chemical substance/The level of expressed mRNA in the absence of chemical substance (yeast gene YOR132W): 1.5
- The level of expressed mRNA in the presence of chemical substance/The level of expressed mRNA in the absence of chemical substance (yeast gene YOR157C): 1.9
- The level of expressed mRNA in the presence of chemical substance/The level of expressed mRNA in the absence of chemical substance (yeast gene YOR165W): 0.8
- The level of expressed mRNA in the presence of chemical substance/The level of expressed mRNA in the absence of chemical substance (yeast gene YOR181W): 3.4
- The level of expressed mRNA in the presence of chemical substance/The level of expressed mRNA in the absence of chemical substance (yeast gene YOR185C): 1.0
- The level of expressed mRNA in the presence of chemical substance/The level of expressed mRNA in the absence of chemical substance (yeast gene YOR198C): 3.8
- The level of expressed mRNA in the presence of chemical substance/The level of expressed mRNA in the absence of chemical substance (yeast gene YOR259C): 1.3
- The level of expressed mRNA in the presence of chemical substance/The level of expressed mRNA in the absence of chemical substance (yeast gene YOR261C): 1.3
- The level of expressed mRNA in the presence of chemical substance/The level of expressed mRNA in the absence of chemical substance (yeast gene YOR285W): 2.0
- The level of expressed mRNA in the presence of chemical substance/The level of expressed mRNA in the absence of chemical substance (yeast gene YOR288C): 1.8
- The level of expressed mRNA in the presence of chemical substance/The level of expressed mRNA in the absence of chemical substance (yeast gene YOR355W): 3.2
- The level of expressed mRNA in the presence of chemical substance/The level of expressed mRNA in the absence of chemical substance (yeast gene YPL018W): 0.9
- The level of expressed mRNA in the presence of chemical substance/The level of expressed mRNA in the absence of chemical substance (yeast gene YPL089C): 2.6
- The level of expressed mRNA in the presence of chemical substance/The level of expressed mRNA in the absence of chemical substance (yeast gene YPL109C): 1.3
- The level of expressed mRNA in the presence of chemical substance/The level of expressed mRNA in the absence of chemical substance (yeast gene YPL149W): 0.8
- The level of expressed mRNA in the presence of chemical substance/The level of expressed mRNA in the absence of chemical substance (yeast gene YPL154C): 4.0
- The level of expressed mRNA in the presence of chemical substance/The level of expressed mRNA in the absence of chemical substance (yeast gene YPR073C): 0.8
- The level of expressed mRNA in the presence of chemical substance/The level of expressed mRNA in the absence of chemical substance (yeast gene YPR103W): 1.0
- The level of expressed mRNA in the presence of chemical substance/The level of expressed mRNA in the absence of chemical substance (yeast gene YPR108W): 1.3
